Measured values: US20220251039A1, “Diaryl-B-Lactam Compound and Preparation Method and Pharmaceutical Use Thereof” (Fudan University, priority 2016, published 2022)
Entries after “also recorded” stand apart in the source; their conditions may differ.

Columns and labels:
SKOV3 = assay: MTT antiproliferative assay, SKOV3; type: cell-based; conditions: Homo sapiens, SK-OV-3, SKOV3, 48 h, read-out: In vitro cell growth inhibition IC50, SKOV3
Description: (§1) 5000 tumor cells per well were seeded into 96-well plate and allowed to adhere overnight. Cells were treated with various concentrations of tested compounds or DMSO (0.2%, as negative control) for 48 h. Then, the medium along with tested compounds or DMSO was discarded and […] per well MTT containing medium (0.5 mg/mL) was added. After incubation at 37° C. for 4 h, the MTT-containing medium was replaced by DMSO (150 μL per well) to dissolve the formazan crystals. Absorbance of the resulting solution was measured by microplate reader (Biotech ELx800) at 540 nm wavelength. Growth inhibition rates were calculated with the absorbance. Half maximal inhibitory concentration (IC50) of each compound was calculated using GraphPad Prism, version 6.0.

Hela = assay: MTT antiproliferative assay, Hela; type: cell-based; conditions: Homo sapiens, 48 h, read-out: In vitro cell growth inhibition IC50, Hela
Description: as §1

tubulin [1] = assay: Immunoblotting analysis of polymerized/depolymerized tubulin; type: cell-based, human; conditions: Hela cells, 6 h
Description: After being treated with diluent (0.2% DMSO), tested compound, CA-4 or PTX for 6 h, Hela cells were lysed with microtubulestabilizing buffer, containing 100 mM PIPES, pH 6.8, 1 mM MgCl2, 2 mM EGTA, 0.5% NP-40, 2 M glycerol, 5 μM PTX and protease inhibitors cocktail (Roche), and the lysate was centrifuged at 15,000 rpm for 15 min. Supernatant containing depolymerized tubulin was carefully collected, whereas pellet (polymerized tubulin) was further dissolved in SDS-lysis buffer (Beyotime, China). Equal amounts of supernatant and dissolved pellet were subjected to immunoblotting analysis as described above using a tubulin antibody (Proteintech).

tubulin [2] = assay: Immunofluorescent analysis of tubulin morphology; type: cell-based, human; conditions: SKOV-3 cells, 24 h
Description: After treatment with diluent (0.2% DMSO) or tested compounds at indicated concentrations for 24 h, SKOV-3 cells were fixed with methanol, permeabilized with 0.1% Triton X-100 in PBS and blocked by goat serum. Then the cells were incubated with a-tubulin antibody at 4° C. overnight, followed by incubation with Alexa 488 labeled secondary antibody (Jackson ImmunoResearch) at RT for 1 h. After being stained with DAPI, cells were examined and photographed with a Leica SP5 co-focal fluorescence microscope.

MDA-MB-231 cells = assay: Colony formation assay; type: cell-based, human; conditions: 48 h treatment, 7-10 days growth
Description: 1000 MDA-MB-231 cells per well were seeded into 6-well plate at a single cell density and were cultured at 37° C. for 48 h. After being treated with indicated concentrations of 69, 70 and 97, CA-4 as positive control, or diluent (0.2% DMSO) as negative control for 48 h, the agents containing medium was replaced by fresh medium to allow cell growth for additional 7-10 days. Then the cells were fixed with methanol and stained with gentian violet for 30 min. The number of colonies which consisted of more than 50 cells were counted. The results were indicated as mean values from three independent determinations.

[3] = test system: p-histone H3, cyclin B1 and BuBR1; assay: Cell cycle associated proteins assay; type: cell-based, human; conditions: HeLa cells, 24 h, Western blot and qPCR
Description: A. HeLa cells were treated with 69, 70, 97 or DMSO for 24 h. After being harvested, the cells were lysed, and the concentrations of total protein were determined by BCA protein assay kit (Beyotime, China). […] The membrane was blocked with 5% BSA in TBST for 1.5 h, then incubated overnight with specific primary antibodies (Proteintech) at 4° C. After being washed three times by TBST, the membrane was incubated with specific secondary antibodies (Abnova, Taipei, China) at room temperature for 2 h. Finally, chemiluminescent reagents (Millipore) were employed to detect the protein bands.
(§2) B. Quantitative PCR assay: HeLa cells were treated with 69, 70 or 97. The expression level of mRNA of target proteins was tested with qPCR kit (Takara).

cellular apoptosis = assay: Cell apoptosis analysis (Annexin V/PI); type: cell-based; conditions: 48 h, Annexin-V/PI flow cytometry
Description: Cell apoptosis was detected using FITC Annexin V Apoptosis Detection Kit (BD Biosciences) according to manufacturer's instructions. Briefly, cells were incubated with indicated concentrations of 69, 70 and 97, CA-4 as positive control or diluent (0.2% DMSO) as negative control for 48 h. Then the cells were harvested, washed twice with PBS, and re-suspended in binding buffer. After being stained with Annexin-V and PI for 15 min in the dark place, cells were subjected to flow cytometry (Cytomics FC 500 MPL, Beckman Coulter) analysis. The results were indicated as mean values from three independent determinations.

[4] = test system: Bax, p53 and cleaved-PARP; assay: Expression level of apoptosis associated proteins; type: cell-based, human; conditions: HeLa cells, Western blot and qPCR
Description: A. Western blotting: After being treated with candidate compound, cells were harvested and lysed. Then, the lysate was isolated by ultracentrifuge and quantified by BCA assay according to the protocol. After being denatured, equivalent protein of each sample was separated by SDS-PAGE gel and wet-transferred onto […] nitrocellulose membrane. After being blocked by PBS containing 5% skim milk, the membrane was incubated with primary antibody at 4° C. overnight and secondary antibody at room temperature for 2 h and then visualized by enhanced chemiluminescence kit (Thermo Fisher, USA), sequentially.
as §2

KM mice = assay: Acute toxicity assay; type: in vivo
Description: KM mice were housed individually in a specific pathogen free facility. Groups of mice (n=10 per group, half male and half female) were injected intraperitoneally once with various dosages of 69 (95, 70, 50, 35, 25 mg/kg), 70 (500, 425, 350, 275, 200 mg/kg), 97 (275, 200, 150, 125 and 100 mg/kg) or vehicle (8.3% cremohorp EL and 8.3% alcohol in PBS) as negative control, respectively. 69, 70 and 97 was dissolved in cremeohore EL and alcohol mixture (1:1, v/v) and further diluted with PBS (1:5, v/v). The death of mice were monitored daily and recorded up to 14 days after injection.

A2780 cells = assay: Xenografts tumor growth assay in nude mice; type: in vivo, Balb/c nude mice; conditions: A2780 xenograft
Description: 6 weeks old female Balb/c nude mice were purchased from Shanghai Slac Laboratory Animal Co. Ltd. (Shanghai, China). 2*10^6 A2780 cells suspended in 0.2 mL PBS per mouse was injected subcutaneously into the nude mice. […] Administration of agents or vehicle, or agents and measurement of tumor volumes with a digital caliper was done once every 2 days. Tumor volumes were calculated as volume=shortest diameter (W)^2*longest diameter (L)*0.52. When the average tumor volumes of vehicle treated group reached 2000 mm^3 in diameter, the mice were sacrificed and the tumors were isolated and weighed. Visceral organs of the mice as well as solid tumors were further analyzed by H&E staining.

With COc1ccc([C@H]2C(=O)C(=O)N2c2cc(OC)c(OC)c(OC)c2)cc1OCc1ccccc1 [Compound 71, (S)-4-(3-(benzyloxy)-4-methoxyphenyl)-1-(3,4,5-trimethoxyphenyl)azetidine-2,3-dione] the IC50 (SKOV3) was greater than 10 µM and the IC50 (Hela) was greater than 10 µM.
COc1ccc([C@H]2[C@H](C)C(=O)N2c2cc(OC)c(OC)c(OC)c2)cc1O [Compound 97, (3S,4R)-4-(3-hydroxy-4-methoxyphenyl)-3-methyl-1-(3,4,5-trimethoxyphenyl)azetidin-2-one] was tested, and the “polymerized tubulin (immunoblotting)” value (tubulin [1]) was “significantly inhibit tubulin aggregation; also recorded: dramatically reduction of polymerized tubulin”, the “tubulin assembly (immunofluorescence)” value (tubulin [2]) was “significantly inhibit tubulin aggregation; also recorded: strongly inhibit tubulin assembly in cancer cells” and the colony formation (MDA-MB-231 cells) was “significantly inhibit the formation of colonies of cancer cells”. The “expression of p-histone H3, cyclin B1 and BuBR1” value [3] was “significantly promote the expression of phosphorylated histone H3, cyclin B1, and mitotic checkpoint protein BuBR1”, the cellular apoptosis (cellular apoptosis) was “significantly promote apoptosis; also recorded: significantly induce cellular apoptosis” and the “expression of Bax, p53 and cleaved-PARP” value [4] was “significantly promote the expression of the proapoptotic protein Bax, the tumor suppressor gene p53, and the cleaved DNA repair enzyme; also recorded: significantly induce the expression of Bax, p53 and cleaved-PARP”. For the same molecule, the “No. of dead mice 5-14 days” value (KM mice; 100 mg/kg i.p. once) was 0, the “No. of dead mice 1 day” value (KM mice; 100 mg/kg i.p. once) was 0 and the “No. of dead mice 2 days” value (KM mice; 100 mg/kg i.p. once) was 0. For the same molecule, the “No. of dead mice 3 days” value (KM mice; 100 mg/kg i.p. once) was 1, the “No. of dead mice 4 days” value (KM mice; 100 mg/kg i.p. once) was 0 and the “No. of dead mice Total death” value (KM mice; 100 mg/kg i.p. once) was 1. The “Survival (%) on day 14” value (KM mice; 100 mg/kg i.p. once) was 90%, the “No. of dead mice 5-14 days” value (KM mice; 125 mg/kg i.p. once) was 0 and the “No. of dead mice 1 day” value (KM mice; 125 mg/kg i.p. once) was 0. For the same molecule, the “No. of dead mice 2 days” value (KM mice; 125 mg/kg i.p. once) was 2, the “No. of dead mice 3 days” value (KM mice; 125 mg/kg i.p. once) was 1 and the “No. of dead mice 4 days” value (KM mice; 125 mg/kg i.p. once) was 0. The “No. of dead mice Total death” value (KM mice; 125 mg/kg i.p. once) was 3, the “Survival (%) on day 14” value (KM mice; 125 mg/kg i.p. once) was 70% and the “No. of dead mice 5-14 days” value (KM mice; 150 mg/kg i.p. once) was 0. The “No. of dead mice 1 day” value (KM mice; 150 mg/kg i.p. once) was 2, the “No. of dead mice 2 days” value (KM mice; 150 mg/kg i.p. once) was 4 and the “No. of dead mice 3 days” value (KM mice; 150 mg/kg i.p. once) was 0. The “No. of dead mice 4 days” value (KM mice; 150 mg/kg i.p. once) was 0, the “No. of dead mice Total death” value (KM mice; 150 mg/kg i.p. once) was 6 and the “Survival (%) on day 14” value (KM mice; 150 mg/kg i.p. once) was 40%. The “No. of dead mice 5-14 days” value (KM mice; 200 mg/kg i.p. once) was 0, the “No. of dead mice 1 day” value (KM mice; 200 mg/kg i.p. once) was 1 and the “No. of dead mice 2 days” value (KM mice; 200 mg/kg i.p. once) was 4. The “No. of dead mice 3 days” value (KM mice; 200 mg/kg i.p. once) was 2, the “No. of dead mice 4 days” value (KM mice; 200 mg/kg i.p. once) was 0 and the “No. of dead mice Total death” value (KM mice; 200 mg/kg i.p. once) was 7. For the same molecule, the “Survival (%) on day 14” value (KM mice; 200 mg/kg i.p. once) was 30%, the “No. of dead mice 5-14 days” value (KM mice; 275 mg/kg i.p. once) was 0 and the “No. of dead mice 1 day” value (KM mice; 275 mg/kg i.p. once) was 2. For the same molecule, the “No. of dead mice 2 days” value (KM mice; 275 mg/kg i.p. once) was 4, the “No. of dead mice 3 days” value (KM mice; 275 mg/kg i.p. once) was 2 and the “No. of dead mice 4 days” value (KM mice; 275 mg/kg i.p. once) was 1. For the same molecule, the “No. of dead mice Total death” value (KM mice; 275 mg/kg i.p. once) was 9, the “Survival (%) on day 14” value (KM mice; 275 mg/kg i.p. once) was 10% and the “tumor growth in vivo” value (A2780 cells; i.p. once every 2 days, 69 7.5 mg/kg, 70 12.5 mg/kg, 97 4 or 8 mg/kg) was “significantly inhibit tumor growth in vivo; also recorded: anti-tumor activities in vivo”. For the same molecule, the “H&E staining of liver, kidney and spleen” value (A2780 cells; treated groups) was “no abnormal areas are observed in tissue staining of liver, kidney and spleen; also recorded: no detectable abnormalities were observed in liver, kidney and spleen” and the “H&E staining of tumor sections (necrosis)” value (A2780 cells; treated groups) was “cause tumor tissue to produce necrotic areas; also recorded: extensive areas of necrosis or cell death”.
